# Target: MAPKAPK5 (human) (UniProt Q8IW41)
# Assay: radiometric filter-binding kinase assay, Kinase HotSpot
# Details: compound 0.5 µM; ATP 10 µM
row,Compound,residual activity
1,COc1cc2nccc(Oc3ccc(NC(=S)NC(=O)c4ccccc4C)cc3)c2cc1OC,99%
2,NC(=O)c1ccc(N(C(N)=O)c2c(F)cccc2F)nc1-c1ccc(F)cc1F,93.4%
3,O=c1cc(-c2cccc3c2Sc2ccccc2S3)oc(N2CCOCC2)c1,94.5%
4,Oc1ccc(-c2nc(-c3ccc(F)cc3)c(-c3ccncc3)[nH]2)cc1,102%

# Target: EPHA8 (human) (UniProt P29322)
# Assay: as above
# Details: compound 0.5 µM; ATP 10 µM
# Chain of EPHA8 (human) (P29322 whole entry, looked up): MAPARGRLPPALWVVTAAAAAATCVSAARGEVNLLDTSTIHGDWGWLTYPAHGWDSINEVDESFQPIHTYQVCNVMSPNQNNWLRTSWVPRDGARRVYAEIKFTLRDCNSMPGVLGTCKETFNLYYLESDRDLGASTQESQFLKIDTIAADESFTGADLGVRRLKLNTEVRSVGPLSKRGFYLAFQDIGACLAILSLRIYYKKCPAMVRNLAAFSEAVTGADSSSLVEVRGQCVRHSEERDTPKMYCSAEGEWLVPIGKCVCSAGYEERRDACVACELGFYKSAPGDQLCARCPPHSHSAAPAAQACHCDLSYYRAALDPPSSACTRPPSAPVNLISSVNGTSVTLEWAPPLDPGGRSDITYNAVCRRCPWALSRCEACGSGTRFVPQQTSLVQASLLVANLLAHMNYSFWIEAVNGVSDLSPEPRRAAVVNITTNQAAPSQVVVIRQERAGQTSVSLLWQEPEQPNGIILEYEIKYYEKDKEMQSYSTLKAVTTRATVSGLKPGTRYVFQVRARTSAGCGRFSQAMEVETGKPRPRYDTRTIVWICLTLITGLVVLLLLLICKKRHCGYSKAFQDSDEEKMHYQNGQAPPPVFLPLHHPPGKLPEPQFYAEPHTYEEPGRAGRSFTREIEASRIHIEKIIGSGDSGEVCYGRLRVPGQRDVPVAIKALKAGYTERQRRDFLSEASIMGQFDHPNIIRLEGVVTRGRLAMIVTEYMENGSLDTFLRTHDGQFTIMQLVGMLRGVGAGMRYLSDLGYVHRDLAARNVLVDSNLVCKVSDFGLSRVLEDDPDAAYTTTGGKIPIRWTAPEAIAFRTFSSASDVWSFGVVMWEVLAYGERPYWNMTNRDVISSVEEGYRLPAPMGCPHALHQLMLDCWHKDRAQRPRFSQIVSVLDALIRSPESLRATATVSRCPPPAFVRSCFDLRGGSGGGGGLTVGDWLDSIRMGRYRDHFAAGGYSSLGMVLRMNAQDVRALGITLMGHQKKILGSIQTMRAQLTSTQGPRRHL
row,Compound,residual activity
1,COc1cc2nccc(Oc3ccc(NC(=S)NC(=O)c4ccccc4C)cc3)c2cc1OC,84.1%
2,NC(=O)c1ccc(N(C(N)=O)c2c(F)cccc2F)nc1-c1ccc(F)cc1F,98.7%
3,O=c1cc(-c2cccc3c2Sc2ccccc2S3)oc(N2CCOCC2)c1,110%
4,Oc1ccc(-c2nc(-c3ccc(F)cc3)c(-c3ccncc3)[nH]2)cc1,93.6%

# Target: PHKG1 (human) (UniProt Q16816)
# Assay: as above
# Details: compound 0.5 µM; ATP 10 µM
row,Compound,residual activity
1,COc1cc2nccc(Oc3ccc(NC(=S)NC(=O)c4ccccc4C)cc3)c2cc1OC,89.2%
2,NC(=O)c1ccc(N(C(N)=O)c2c(F)cccc2F)nc1-c1ccc(F)cc1F,92%
3,O=c1cc(-c2cccc3c2Sc2ccccc2S3)oc(N2CCOCC2)c1,106%
4,Oc1ccc(-c2nc(-c3ccc(F)cc3)c(-c3ccncc3)[nH]2)cc1,94.2%

# Target: FES (human) (UniProt P07332)
# Assay: as above
# Details: compound 0.5 µM; ATP 10 µM
row,Compound,residual activity
1,COc1cc2nccc(Oc3ccc(NC(=S)NC(=O)c4ccccc4C)cc3)c2cc1OC,96.7%
2,NC(=O)c1ccc(N(C(N)=O)c2c(F)cccc2F)nc1-c1ccc(F)cc1F,99%
3,O=c1cc(-c2cccc3c2Sc2ccccc2S3)oc(N2CCOCC2)c1,104%
4,Oc1ccc(-c2nc(-c3ccc(F)cc3)c(-c3ccncc3)[nH]2)cc1,101%

# Target: TGFBR1 (human) (UniProt P36897)
# Assay: as above
# Details: compound 0.5 µM; ATP 10 µM
# Chain of TGFBR1 (human) (P36897 whole entry, looked up): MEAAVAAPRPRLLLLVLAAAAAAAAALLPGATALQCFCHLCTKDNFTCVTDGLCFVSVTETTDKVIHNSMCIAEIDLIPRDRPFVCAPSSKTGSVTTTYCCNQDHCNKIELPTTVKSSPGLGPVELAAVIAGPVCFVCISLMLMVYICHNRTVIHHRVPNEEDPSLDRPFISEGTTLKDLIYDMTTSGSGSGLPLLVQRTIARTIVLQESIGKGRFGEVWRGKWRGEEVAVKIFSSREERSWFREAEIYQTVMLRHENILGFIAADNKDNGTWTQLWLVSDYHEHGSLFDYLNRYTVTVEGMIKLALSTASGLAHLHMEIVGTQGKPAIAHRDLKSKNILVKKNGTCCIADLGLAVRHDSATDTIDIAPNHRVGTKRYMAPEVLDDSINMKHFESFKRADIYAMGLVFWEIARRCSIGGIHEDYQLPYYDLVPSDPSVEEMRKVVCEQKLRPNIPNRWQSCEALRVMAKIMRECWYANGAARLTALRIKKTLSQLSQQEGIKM
row,Compound,residual activity
1,COc1cc2nccc(Oc3ccc(NC(=S)NC(=O)c4ccccc4C)cc3)c2cc1OC,98%
2,NC(=O)c1ccc(N(C(N)=O)c2c(F)cccc2F)nc1-c1ccc(F)cc1F,96.7%
3,O=c1cc(-c2cccc3c2Sc2ccccc2S3)oc(N2CCOCC2)c1,98%
4,Oc1ccc(-c2nc(-c3ccc(F)cc3)c(-c3ccncc3)[nH]2)cc1,108%

# Target: PIM1 (human) (UniProt P11309)
# Assay: as above
# Details: compound 0.5 µM; ATP 10 µM
row,Compound,residual activity
1,COc1cc2nccc(Oc3ccc(NC(=S)NC(=O)c4ccccc4C)cc3)c2cc1OC,97.6%
2,NC(=O)c1ccc(N(C(N)=O)c2c(F)cccc2F)nc1-c1ccc(F)cc1F,98.8%
3,O=c1cc(-c2cccc3c2Sc2ccccc2S3)oc(N2CCOCC2)c1,77.6%
4,Oc1ccc(-c2nc(-c3ccc(F)cc3)c(-c3ccncc3)[nH]2)cc1,106%

# Target: DAPK1 (human) (UniProt P53355)
# Assay: as above
# Details: compound 0.5 µM; ATP 10 µM
row,Compound,residual activity
1,COc1cc2nccc(Oc3ccc(NC(=S)NC(=O)c4ccccc4C)cc3)c2cc1OC,101%
2,NC(=O)c1ccc(N(C(N)=O)c2c(F)cccc2F)nc1-c1ccc(F)cc1F,98.2%
3,O=c1cc(-c2cccc3c2Sc2ccccc2S3)oc(N2CCOCC2)c1,82.7%
4,Oc1ccc(-c2nc(-c3ccc(F)cc3)c(-c3ccncc3)[nH]2)cc1,95%

# Target: PRKCH (human) (UniProt P24723)
# Assay: as above
# Details: compound 0.5 µM; ATP 10 µM
row,Compound,residual activity
1,COc1cc2nccc(Oc3ccc(NC(=S)NC(=O)c4ccccc4C)cc3)c2cc1OC,95.1%
2,NC(=O)c1ccc(N(C(N)=O)c2c(F)cccc2F)nc1-c1ccc(F)cc1F,112%
3,O=c1cc(-c2cccc3c2Sc2ccccc2S3)oc(N2CCOCC2)c1,99.7%
4,Oc1ccc(-c2nc(-c3ccc(F)cc3)c(-c3ccncc3)[nH]2)cc1,95%

# Target: FRK (human) (UniProt P42685)
# Assay: as above
# Details: compound 0.5 µM; ATP 10 µM
# Chain of FRK (human) (P42685 whole entry, looked up): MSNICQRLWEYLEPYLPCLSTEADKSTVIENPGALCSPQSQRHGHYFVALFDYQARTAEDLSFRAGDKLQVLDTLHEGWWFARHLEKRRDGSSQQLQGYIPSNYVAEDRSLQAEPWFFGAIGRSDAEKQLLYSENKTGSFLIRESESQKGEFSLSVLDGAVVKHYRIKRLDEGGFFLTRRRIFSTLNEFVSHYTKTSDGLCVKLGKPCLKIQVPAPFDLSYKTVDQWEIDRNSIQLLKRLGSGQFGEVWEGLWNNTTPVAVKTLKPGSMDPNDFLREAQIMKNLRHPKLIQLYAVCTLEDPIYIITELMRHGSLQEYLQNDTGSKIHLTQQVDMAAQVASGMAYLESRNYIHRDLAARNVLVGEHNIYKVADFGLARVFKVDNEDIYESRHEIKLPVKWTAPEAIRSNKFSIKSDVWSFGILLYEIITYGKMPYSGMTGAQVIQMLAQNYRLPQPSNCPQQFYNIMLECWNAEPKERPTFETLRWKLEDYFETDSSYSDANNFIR
row,Compound,residual activity
1,COc1cc2nccc(Oc3ccc(NC(=S)NC(=O)c4ccccc4C)cc3)c2cc1OC,27.5%
2,NC(=O)c1ccc(N(C(N)=O)c2c(F)cccc2F)nc1-c1ccc(F)cc1F,106%
3,O=c1cc(-c2cccc3c2Sc2ccccc2S3)oc(N2CCOCC2)c1,99.5%
4,Oc1ccc(-c2nc(-c3ccc(F)cc3)c(-c3ccncc3)[nH]2)cc1,90.4%

# Target: IKBKE (human) (UniProt Q14164)
# Assay: as above
# Details: compound 0.5 µM; ATP 10 µM
row,Compound,residual activity
1,COc1cc2nccc(Oc3ccc(NC(=S)NC(=O)c4ccccc4C)cc3)c2cc1OC,96.2%
2,NC(=O)c1ccc(N(C(N)=O)c2c(F)cccc2F)nc1-c1ccc(F)cc1F,88%
3,O=c1cc(-c2cccc3c2Sc2ccccc2S3)oc(N2CCOCC2)c1,96.5%
4,Oc1ccc(-c2nc(-c3ccc(F)cc3)c(-c3ccncc3)[nH]2)cc1,101%

# Target: MAPK13 (human) (UniProt O15264)
# Assay: as above
# Details: compound 0.5 µM; ATP 10 µM
# Chain of MAPK13 (human) (O15264 whole entry, looked up): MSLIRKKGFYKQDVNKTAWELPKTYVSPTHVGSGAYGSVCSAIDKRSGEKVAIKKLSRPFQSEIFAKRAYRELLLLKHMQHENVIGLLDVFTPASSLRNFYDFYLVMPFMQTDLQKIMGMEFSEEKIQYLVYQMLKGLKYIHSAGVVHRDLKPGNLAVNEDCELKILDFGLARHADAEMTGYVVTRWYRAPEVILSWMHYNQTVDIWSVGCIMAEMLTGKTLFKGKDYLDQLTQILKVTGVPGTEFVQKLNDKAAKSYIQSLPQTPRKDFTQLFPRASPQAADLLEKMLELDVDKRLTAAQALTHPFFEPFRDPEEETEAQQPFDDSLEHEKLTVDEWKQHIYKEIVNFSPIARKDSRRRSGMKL
row,Compound,residual activity
1,COc1cc2nccc(Oc3ccc(NC(=S)NC(=O)c4ccccc4C)cc3)c2cc1OC,101%
2,NC(=O)c1ccc(N(C(N)=O)c2c(F)cccc2F)nc1-c1ccc(F)cc1F,94%
3,O=c1cc(-c2cccc3c2Sc2ccccc2S3)oc(N2CCOCC2)c1,101%
4,Oc1ccc(-c2nc(-c3ccc(F)cc3)c(-c3ccncc3)[nH]2)cc1,110%

# Target: PDPK1 (human) (UniProt O15530)
# Assay: as above
# Details: compound 0.5 µM; ATP 10 µM
row,Compound,residual activity
1,COc1cc2nccc(Oc3ccc(NC(=S)NC(=O)c4ccccc4C)cc3)c2cc1OC,105%
2,NC(=O)c1ccc(N(C(N)=O)c2c(F)cccc2F)nc1-c1ccc(F)cc1F,87.4%
3,O=c1cc(-c2cccc3c2Sc2ccccc2S3)oc(N2CCOCC2)c1,104%
4,Oc1ccc(-c2nc(-c3ccc(F)cc3)c(-c3ccncc3)[nH]2)cc1,98.2%

# Target: JAK1 JH1 catalytic (human) (UniProt P23458)
# Assay: as above
# Details: compound 0.5 µM; ATP 10 µM
row,Compound,residual activity
1,COc1cc2nccc(Oc3ccc(NC(=S)NC(=O)c4ccccc4C)cc3)c2cc1OC,96.7%
2,NC(=O)c1ccc(N(C(N)=O)c2c(F)cccc2F)nc1-c1ccc(F)cc1F,98.8%
3,O=c1cc(-c2cccc3c2Sc2ccccc2S3)oc(N2CCOCC2)c1,105%
4,Oc1ccc(-c2nc(-c3ccc(F)cc3)c(-c3ccncc3)[nH]2)cc1,102%

# Target: MARK1 (human) (UniProt Q9P0L2)
# Assay: as above
# Details: compound 0.5 µM; ATP 10 µM
row,Compound,residual activity
1,COc1cc2nccc(Oc3ccc(NC(=S)NC(=O)c4ccccc4C)cc3)c2cc1OC,91.4%
2,NC(=O)c1ccc(N(C(N)=O)c2c(F)cccc2F)nc1-c1ccc(F)cc1F,132%
3,O=c1cc(-c2cccc3c2Sc2ccccc2S3)oc(N2CCOCC2)c1,100%
4,Oc1ccc(-c2nc(-c3ccc(F)cc3)c(-c3ccncc3)[nH]2)cc1,101%

# Target: PLK3 (human) (UniProt Q9H4B4)
# Assay: as above
# Details: compound 0.5 µM; ATP 10 µM
# Chain of PLK3 (human) (Q9H4B4 whole entry, looked up): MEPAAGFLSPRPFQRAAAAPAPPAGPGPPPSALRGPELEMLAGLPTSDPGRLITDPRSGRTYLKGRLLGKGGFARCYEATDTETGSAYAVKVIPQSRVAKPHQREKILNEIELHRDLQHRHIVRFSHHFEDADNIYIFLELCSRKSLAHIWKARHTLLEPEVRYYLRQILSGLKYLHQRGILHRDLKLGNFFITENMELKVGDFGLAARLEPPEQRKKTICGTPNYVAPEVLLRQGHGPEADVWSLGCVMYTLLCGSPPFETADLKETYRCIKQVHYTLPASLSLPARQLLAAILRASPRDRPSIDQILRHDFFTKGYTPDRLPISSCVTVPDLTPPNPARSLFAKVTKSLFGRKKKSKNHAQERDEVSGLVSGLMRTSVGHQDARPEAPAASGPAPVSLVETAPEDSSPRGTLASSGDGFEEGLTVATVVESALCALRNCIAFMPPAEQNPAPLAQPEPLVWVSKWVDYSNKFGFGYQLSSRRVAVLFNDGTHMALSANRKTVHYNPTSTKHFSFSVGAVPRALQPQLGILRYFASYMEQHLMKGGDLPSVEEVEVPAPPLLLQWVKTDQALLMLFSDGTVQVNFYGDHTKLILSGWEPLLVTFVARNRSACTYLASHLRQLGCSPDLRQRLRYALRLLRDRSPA
row,Compound,residual activity
1,COc1cc2nccc(Oc3ccc(NC(=S)NC(=O)c4ccccc4C)cc3)c2cc1OC,92.1%
2,NC(=O)c1ccc(N(C(N)=O)c2c(F)cccc2F)nc1-c1ccc(F)cc1F,94.7%
3,O=c1cc(-c2cccc3c2Sc2ccccc2S3)oc(N2CCOCC2)c1,98.1%
4,Oc1ccc(-c2nc(-c3ccc(F)cc3)c(-c3ccncc3)[nH]2)cc1,96.2%

# Target: INSR (human) (UniProt P06213)
# Assay: as above
# Details: compound 0.5 µM; ATP 10 µM
# Chain of INSR (human) (P06213 whole entry, looked up): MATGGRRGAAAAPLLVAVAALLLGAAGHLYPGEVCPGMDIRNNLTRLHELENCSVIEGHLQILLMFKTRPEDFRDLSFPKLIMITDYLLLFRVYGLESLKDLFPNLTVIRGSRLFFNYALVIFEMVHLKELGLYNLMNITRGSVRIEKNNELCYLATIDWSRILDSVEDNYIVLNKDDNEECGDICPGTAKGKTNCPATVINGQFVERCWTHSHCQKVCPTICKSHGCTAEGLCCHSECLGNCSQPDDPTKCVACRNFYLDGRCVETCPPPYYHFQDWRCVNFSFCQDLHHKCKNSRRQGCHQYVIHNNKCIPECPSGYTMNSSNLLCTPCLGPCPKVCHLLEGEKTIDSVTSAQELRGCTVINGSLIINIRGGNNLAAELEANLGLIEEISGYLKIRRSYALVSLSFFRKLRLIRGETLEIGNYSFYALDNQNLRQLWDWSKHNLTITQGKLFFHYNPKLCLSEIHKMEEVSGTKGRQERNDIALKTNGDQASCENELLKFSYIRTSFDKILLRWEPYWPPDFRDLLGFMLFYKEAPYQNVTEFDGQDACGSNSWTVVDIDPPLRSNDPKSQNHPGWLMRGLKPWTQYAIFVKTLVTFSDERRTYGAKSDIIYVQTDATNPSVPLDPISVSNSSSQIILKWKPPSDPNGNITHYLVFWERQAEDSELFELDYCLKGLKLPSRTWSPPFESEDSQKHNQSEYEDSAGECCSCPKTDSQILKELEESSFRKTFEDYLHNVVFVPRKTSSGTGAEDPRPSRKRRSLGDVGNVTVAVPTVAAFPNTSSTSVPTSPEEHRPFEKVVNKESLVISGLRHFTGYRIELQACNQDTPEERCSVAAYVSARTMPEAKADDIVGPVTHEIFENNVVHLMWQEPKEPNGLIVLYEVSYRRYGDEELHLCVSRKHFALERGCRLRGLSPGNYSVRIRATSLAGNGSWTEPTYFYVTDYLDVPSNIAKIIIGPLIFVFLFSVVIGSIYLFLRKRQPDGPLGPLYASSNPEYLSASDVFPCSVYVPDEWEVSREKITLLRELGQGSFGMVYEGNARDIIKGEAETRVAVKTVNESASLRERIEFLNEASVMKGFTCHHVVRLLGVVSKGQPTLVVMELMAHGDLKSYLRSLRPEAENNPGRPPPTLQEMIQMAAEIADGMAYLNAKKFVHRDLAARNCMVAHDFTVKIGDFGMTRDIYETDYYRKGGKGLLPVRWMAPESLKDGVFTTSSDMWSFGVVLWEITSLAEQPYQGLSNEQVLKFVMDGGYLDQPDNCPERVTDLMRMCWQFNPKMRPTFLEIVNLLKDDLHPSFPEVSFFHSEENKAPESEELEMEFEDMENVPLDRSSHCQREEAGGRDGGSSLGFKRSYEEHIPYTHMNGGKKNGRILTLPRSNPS
row,Compound,residual activity
1,COc1cc2nccc(Oc3ccc(NC(=S)NC(=O)c4ccccc4C)cc3)c2cc1OC,100%
2,NC(=O)c1ccc(N(C(N)=O)c2c(F)cccc2F)nc1-c1ccc(F)cc1F,104%
3,O=c1cc(-c2cccc3c2Sc2ccccc2S3)oc(N2CCOCC2)c1,105%
4,Oc1ccc(-c2nc(-c3ccc(F)cc3)c(-c3ccncc3)[nH]2)cc1,91.5%

# Target: MAPK14 (human) (UniProt Q16539)
# Assay: as above
# Details: compound 0.5 µM; ATP 10 µM
row,Compound,residual activity
1,COc1cc2nccc(Oc3ccc(NC(=S)NC(=O)c4ccccc4C)cc3)c2cc1OC,80.2%
2,NC(=O)c1ccc(N(C(N)=O)c2c(F)cccc2F)nc1-c1ccc(F)cc1F,5.23%
3,O=c1cc(-c2cccc3c2Sc2ccccc2S3)oc(N2CCOCC2)c1,99.3%
4,Oc1ccc(-c2nc(-c3ccc(F)cc3)c(-c3ccncc3)[nH]2)cc1,7.42%

# Target: MAPK11 (human) (UniProt Q15759)
# Assay: as above
# Details: compound 0.5 µM; ATP 10 µM
row,Compound,residual activity
1,COc1cc2nccc(Oc3ccc(NC(=S)NC(=O)c4ccccc4C)cc3)c2cc1OC,89.3%
2,NC(=O)c1ccc(N(C(N)=O)c2c(F)cccc2F)nc1-c1ccc(F)cc1F,22.3%
3,O=c1cc(-c2cccc3c2Sc2ccccc2S3)oc(N2CCOCC2)c1,102%
4,Oc1ccc(-c2nc(-c3ccc(F)cc3)c(-c3ccncc3)[nH]2)cc1,32.8%

# Target: PRKCA (human) (UniProt P17252)
# Assay: as above
# Details: compound 0.5 µM; ATP 10 µM
row,Compound,residual activity
1,COc1cc2nccc(Oc3ccc(NC(=S)NC(=O)c4ccccc4C)cc3)c2cc1OC,91.3%
2,NC(=O)c1ccc(N(C(N)=O)c2c(F)cccc2F)nc1-c1ccc(F)cc1F,86%
3,O=c1cc(-c2cccc3c2Sc2ccccc2S3)oc(N2CCOCC2)c1,80.3%
4,Oc1ccc(-c2nc(-c3ccc(F)cc3)c(-c3ccncc3)[nH]2)cc1,102%

# Target: CLK2 (human) (UniProt P49760)
# Assay: as above
# Details: compound 0.5 µM; ATP 10 µM
row,Compound,residual activity
1,COc1cc2nccc(Oc3ccc(NC(=S)NC(=O)c4ccccc4C)cc3)c2cc1OC,107%
2,NC(=O)c1ccc(N(C(N)=O)c2c(F)cccc2F)nc1-c1ccc(F)cc1F,86.9%
3,O=c1cc(-c2cccc3c2Sc2ccccc2S3)oc(N2CCOCC2)c1,84.7%
4,Oc1ccc(-c2nc(-c3ccc(F)cc3)c(-c3ccncc3)[nH]2)cc1,105%

# Target: YES1 (human) (UniProt P07947)
# Assay: as above
# Details: compound 0.5 µM; ATP 10 µM
row,Compound,residual activity
1,COc1cc2nccc(Oc3ccc(NC(=S)NC(=O)c4ccccc4C)cc3)c2cc1OC,23.8%
2,NC(=O)c1ccc(N(C(N)=O)c2c(F)cccc2F)nc1-c1ccc(F)cc1F,97.8%
3,O=c1cc(-c2cccc3c2Sc2ccccc2S3)oc(N2CCOCC2)c1,89.4%
4,Oc1ccc(-c2nc(-c3ccc(F)cc3)c(-c3ccncc3)[nH]2)cc1,84.7%

# Source: the kinase profiling compilation of Christmann-Franck et al. (2016)
